Laboratory results: US20170240556A1, “BIFLUORODIOXALANE-AMINO-BENZIMIDAZOLE KINASE INHIBITORS FOR THE TREATMENT OF CANCER, AUTOIMMUNEINFLAMMATION AND CNS DISORDERS” (4SC DISCOVERY GMBH, priority 2012, published 2017)

What was measured:
Type in all cases: cell-based
[1] = test system: Hedgehog signaling pathway; assay: Hedgehog reporter assay (Gli Reporter - NIH3T3 Cell Line); conditions: Mus musculus; Gli reporter NIH3T3 cells, murine SHH stimulation, 24 h; read-out: HH Assay
Procedure: In order to investigate the potency of test compounds to inhibit the Hedgehog signaling pathway, a Gli-Reporter assay was performed.
The “Gli Reporter—NIH3T3 Cell Line” contains the firefly luciferase gene under the control of Gli responsive elements stably integrated into murine NIH3T3 cells (cells purchased from Amsbio). The luciferase expression correlates with activation of the hedgehog signaling pathway. This cell line is validated for its response to stimulation with murine Sonic Hedgehog and to treatment with inhibitors of the hedgehog signaling pathway. A multiplexed viability assay was used to discriminate inhibition on the pathway activity from cell toxicity.
Growth Medium: DMEM, 10% Calf Serum, 1% Penicillin/Streptomycin 500 μg/ml Geneticin (G418 Stock 50 mg/ml).
25.000 cells per well were seeded into a white 96 well plate in 100 μl growth medium and incubated over night at 37° C. and 5% CO2. After removing the supernatant the test compounds and controls (known GLI inhibitor, e.g. GANT-61) were added in different concentrations in a final volume of 45 μl and incubated for 1 h at 37° C. and 5% CO2. For the stimulation of the Hedgehog pathway 5 μl of 10 μg/ml concentrated murine sonic hedgehog (SHH) was added to the cells. A final concentration of 1 μg/ml mSHH and 0.1% DMSO was reached per well. After incubation for 24 h at 37° C. the cells were investigated for viability and reporter activity.
Viability: For the determination of the viability of the treated cells the CellTiter-Fluor Kit from Promega was used. Essentially, only proteases of viable cells are able to cleave the cell-permeant substrate Gly-Phe-AFCoumarin (GF-AFC). By this cleavage the fluorescent AFC is set free and can be detected in a fluorescence reader. For this assay 10 μl of GF-AFC substrate (CellTiter-Fluor, Promega #G6082) was diluted in 2 ml assay buffer from the CellTiter-Fluor Kit and 10 μl of this dilution was added per well to the cells and incubated for 30 min at 37° C. The fluorescence was measured with excitation at 380-400 nm and emission at 505 nm.
Reporter activity: The firefly luciferase reporter activity was detected with the ONE-Glo™ Luciferase Assay System from Promega. For this assay 50 μl ONE-Glo luciferase reagent (Promega #E6120, contains cell lysis buffer and luciferin) was added to each well and incubated at room temperature for 5 min. Luminescence was detected in a plate reader and served as a degree for reporter activity.

786O (kidney) = assay: Proliferation Assay; conditions: Homo sapiens, 786-0, 72 h, read-out: IC50 inhibition of cell growth
Procedure: (§1) For the determination of the inhibitory capacity of compounds of the present invention (in the following: “test compound(s)”) on cell growth, cancer cells were seeded into microtitre plates, treated with different concentrations of test compound or left untreated, and after 72 h the protein content was determined as an equivalent for the cell number.
(§2) Test compounds were dissolved in 100% DMSO and predilutions in cell culture medium were prepared with a final concentration of 0.1% DMSO in medium. The cell culture medium for dilution of the test compounds, consecutive culturing of cell lines and usage during the assay was a cell line specific medium as recommended by the cell line supplier and identical for all three applications mentioned above. After a 24-hour pre-growth period of the seeded cancer cells, the test compound containing media or medium containing 0.1% DMSO as control was added to the cells. The cells were allowed to grow at 37° C. for 72 hours. In addition, all experiments contained a few plates with cells that were processed for measurement immediately after the 24 hours recovery period. These plates contained information about the cell number that existed before treatment, at time zero, and served to calculate the cytotoxicity and/or growth inhibitory effects.
(§3) After treatment, cells were precipitated by addition of 10% TCA (trichloracetic acid). Prior to fixation, the media was aspirated. After an hour of incubation at 4° C. the plates were washed twice with 400 μl of deionized water. Cells were then stained with 100 μl of a 0.08% wt/v SRB (sulforhodamine). The plates were allowed to sit for at least 30 min and washed six times with 1% acetic acid to remove unbound staining agent. The plates were left to dry at room temperature and bound SRB was solubilized with 100 μl of 10 mM Tris base. Measurement of optical density was performed at 560 nm on a Victor 2 plate reader (Perkin Elmer, Germany).
(§4) One common way to express the effect of an anticancer agent is to measure cell viability and survival in the presence of the test agent as % Treated/Control×100. The relationship between the viability and dose is called a dose response curve. Those dose response curves were determined by using algorithms developed by Oncolead GmbH & Co. KG, Munich, Germany, that can be compared to commercial applications, e.g. XLfit™ (ID Business Solutions Ltd., Guildford, UK) algorithm “205”.

A204 (muscle) = assay: Proliferation Assay; conditions: Homo sapiens, 72 h, read-out: IC50 inhibition of cell growth
Procedure: as §1, §2, §3, §4

A549 (lung) = assay: Proliferation Assay; conditions: Homo sapiens, 72 h, read-out: IC50 inhibition of cell growth
Procedure: as §1, §2, §3, §4

CAKI1 (kidney) = assay: Proliferation Assay; conditions: Homo sapiens, CAKI-1, 72 h, read-out: IC50 inhibition of cell growth
Procedure: as §1, §2, §3, §4

J82 (bladder) = assay: Proliferation Assay; conditions: 72 h, read-out: IC50 inhibition of cell growth
Procedure: as §1, §2, §3, §4

PLCPRFS (liver) = assay: Proliferation Assay; conditions: 72 h, read-out: IC50 inhibition of cell growth
Procedure: as §1, §2, §3, §4

RD (muscle) = assay: Proliferation Assay; conditions: 72 h, read-out: IC50 inhibition of cell growth
Procedure: as §1, §2, §3, §4

SNB75 (brain) = assay: Proliferation Assay; conditions: Homo sapiens, SNB-75, 72 h, read-out: IC50 inhibition of cell growth
Procedure: as §1, §2, §3, §4

TE671 (muscle) = assay: Proliferation Assay; conditions: Homo sapiens, TE-671, 72 h, read-out: IC50 inhibition of cell growth
Procedure: as §1, §2, §3, §4

COc1cccc(C(=O)Nc2nc3cc4c(cc3[nH]2)OC(F)(F)O4)c1 [Compound 56, N-(2,2-difluoro-5H-[1,3]dioxolo[4′,5′:4,5]benzo[1,2-d]imidazol-6-yl)-3-methoxybenzamide]
IC50 [1]: ≤ 0.5 µM | IC50 (786O (kidney)): ≤ 1 µM | IC50 (A204 (muscle)): ≤ 1 µM | IC50 (A549 (lung)): ≤ 1 µM | IC50 (CAKI1 (kidney)): ≤ 1 µM | IC50 (J82 (bladder)): ≤ 1 µM | IC50 (PLCPRFS (liver)): ≤ 1 µM | IC50 (RD (muscle)): ≤ 1 µM | IC50 (SNB75 (brain)): ≤ 1 µM | IC50 (TE671 (muscle)): ≤ 1 µM
